Measured values: patent US10597388B2, “Pyridazinone herbicides” (FMC CORPORATION, priority 2014, dated 2020)

Legend:
Type in all cases: in vivo
[1] = tested on: pigweed (Amaranthus retroflexus); test: Test A greenhouse herbicide test, pre- and postemergence
In short: (§1)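 Visual injury ratings, 0 (no effect) to 100 (complete control), versus untreated plants after roughly 10 d in a greenhouse. Compounds, formulated in a surfactant-containing non-phytotoxic solvent, were sprayed on loam–sand soil after sowing (pre) or on one- to two-leaf plants 2–10 cm tall (post).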

[2] = tested on: ryegrass, Italian (Italian ryegrass, Lolium multiflorum); test: as above
In short: as §1

[3] = tested on: wheat (Triticum aestivum); test: as above; conditions: Postemergence; for Plant response rating, Wheat: 125 g ai/ha, 0 to 100 scale where 0 is no effect and 100 is complete control; for Wheat plant response rating: 500 g ai/ha, 0 to 100 scale, 0 is no effect, 100 is complete control
In short: as §1

[4] = tested on: blackgrass (Alopecurus myosuroides); test: Test A greenhouse herbicide test, postemergence; conditions: for Plant response rating, Blackgrass: 125 g ai/ha, 0 to 100 scale where 0 is no effect and 100 is complete control; for Blackgrass plant response rating: 500 g ai/ha, 0 to 100 scale, 0 is no effect, 100 is complete control
In short: (§2)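 Scores are visual injury ratings from 0 (no effect) to 100 (complete control) versus untreated plants, taken roughly 10 d after treatment in the greenhouse. Treatment was postemergence, on one- to two-leaf plants 2–10 cm high growing in a loam soil/sand mix.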

[5] = tested on: galium (catchweed bedstraw, Galium aparine); test: Test A greenhouse herbicide test, postemergence; conditions: for Plant response rating, Galium: 125 g ai/ha, 0 to 100 scale where 0 is no effect and 100 is complete control; for Galium plant response rating: 500 g ai/ha, 0 to 100 scale, 0 is no effect, 100 is complete control
In short: as §2

[6] = tested on: lambsquarters (Chenopodium album); test: Test C greenhouse herbicide test, pre- and postemergence
In short: (§3)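 Greenhouse pots; pre-em on seeded loam:sand blend, post-em on 2–18 cm plants (1–4 leaf) in sphagnum peat/vermiculite medium. Formulation: non-phytotoxic solvent + surfactant. Read-out: visual % control (0–100) vs controls at 13–15 d.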

[7] = tested on: morningglory (Ipomoea coccinea); test: as above
In short: as §3

[8] = tested on: oilseed rape (Brassica napus); test: as above
In short: as §3

[9] = tested on: pigweed (Amaranthus retroflexus); test: as above
In short: as §3

[10] = tested on: ragweed (common ragweed, Ambrosia elatior); test: as above
In short: as §3

[11] = tested on: waterhemp (common waterhemp, Amaranthus rudis); test: as above
In short: as §3

[12] = Postemergence, 125 g ai/ha, 0 to 100 scale where 0 is no effect and 100 is complete control
[13] = Postemergence, 500 g ai/ha, 0 to 100 scale, 0 is no effect, 100 is complete control
[14] = Preemergence, 125 g ai/ha, 0 to 100 scale where 0 is no effect and 100 is complete control
[15] = Preemergence, 500 g ai/ha, 0 to 100 scale where 0 is no effect and 100 is complete control
[16] = Postemergence, 31 g ai/ha, 0 to 100 scale (0 no effect, 100 complete control)
[17] = Postemergence, 125 g ai/ha, scale 0 to 100, 0 is no effect, 100 is complete control
[18] = Postemergence, 250 g ai/ha, scale 0 to 100, 0 no effect, 100 complete control, 13 to 15 d
[19] = Preemergence, 31 g ai/ha, scale 0 to 100, 0 is no effect, 100 is complete control
[20] = Preemergence, 62 g ai/ha, scale 0 to 100, 0 is no effect, 100 is complete control
[21] = Preemergence, 125 g ai/ha, scale 0 to 100, 0 is no effect, 100 is complete control
[22] = Preemergence, 250 g ai/ha, scale 0 to 100, 0 no effect, 100 complete control
[23] = postemergence, 62 g ai/ha, scale 0 to 100, 0 no effect, 100 complete control

COC(=O)Oc1c(C)nn(C)c(=O)c1-c1c(C)sc2ccc(C)cc12 [Compound 80]
Plant response rating, Pigweed [1, 12]: 90
Pigweed plant response rating [1, 13]: 90
Pigweed plant response rating [1, 14]: 90
Plant response rating, Pigweed [1, 15]: 100
Plant response rating, Ryegrass, Italian [2, 12]: 80
Ryegrass, Italian plant response rating [2, 13]: 90
Ryegrass, Italian plant response rating [2, 14]: 90
Plant response rating, Ryegrass, Italian [2, 15]: 100
Plant response rating, Wheat [3]: 0
Wheat plant response rating [3]: 0
Plant response rating, Blackgrass [4]: 80
Blackgrass plant response rating [4]: 80
Plant response rating, Galium [5]: 90
Galium plant response rating [5]: 90
Lambsquarters plant response rating [6, 16]: 95
Plant response rating, Lambsquarters [6, 17]: 98
Plant response rating, Lambsquarters [6, 18]: 100
Plant response rating, Lambsquarters [6, 19]: 90
Plant response rating, Lambsquarters [6, 20]: 90
Plant response rating, Lambsquarters [6, 21]: 90
Lambsquarters plant response rating [6, 22]: 98
Lambsquarters plant response rating [6, 23]: 95
Morningglory plant response rating [7, 16]: 100
Plant response rating, Morningglory [7, 17]: 100
Plant response rating, Morningglory [7, 18]: 98
Plant response rating, Morningglory [7, 19]: 85
Plant response rating, Morningglory [7, 20]: 90
Plant response rating, Morningglory [7, 21]: 90
Morningglory plant response rating [7, 22]: 98
Morningglory plant response rating [7, 23]: 100
Oilseed Rape plant response rating [8, 16]: 5
Plant response rating, Oilseed Rape [8, 17]: 60
Plant response rating, Oilseed Rape [8, 18]: 80
Plant response rating, Oilseed Rape [8, 19]: 0
Plant response rating, Oilseed Rape [8, 20]: 30
Plant response rating, Oilseed Rape [8, 21]: 50
Oilseed Rape plant response rating [8, 22]: 0
Oilseed Rape plant response rating [8, 23]: 50
Pigweed plant response rating [9, 16]: 85
Plant response rating, Pigweed [9, 17]: 95
Plant response rating, Pigweed [9, 18]: 95
Plant response rating, Pigweed [9, 19]: 100
Plant response rating, Pigweed [9, 20]: 100
Plant response rating, Pigweed [9, 21]: 100
Pigweed plant response rating [9, 22]: 100
Pigweed plant response rating [9, 23]: 90
Ragweed plant response rating [10, 16]: 98
Plant response rating, Ragweed [10, 17]: 98
Plant response rating, Ragweed [10, 18]: 98
Plant response rating, Ragweed [10, 19]: 90
Plant response rating, Ragweed [10, 20]: 95
Plant response rating, Ragweed [10, 21]: 95
Ragweed plant response rating [10, 22]: 100
Ragweed plant response rating [10, 23]: 90
Waterhemp plant response rating [11, 16]: 85
Plant response rating, Waterhemp [11, 17]: 85
Plant response rating, Waterhemp [11, 18]: 95
Plant response rating, Waterhemp [11, 19]: 100
Plant response rating, Waterhemp [11, 20]: 100
Plant response rating, Waterhemp [11, 21]: 100
Waterhemp plant response rating [11, 22]: 100
Waterhemp plant response rating [11, 23]: 80

Cc1sc2ccccc2c1-c1c(O)c(Cl)nn(C)c1=O [Compound 89]
Plant response rating, Pigweed [1, 12]: 80
Pigweed plant response rating [1, 13]: 90
Pigweed plant response rating [1, 14]: 100
Plant response rating, Pigweed [1, 15]: 100
Plant response rating, Ryegrass, Italian [2, 12]: 80
Ryegrass, Italian plant response rating [2, 13]: 90
Ryegrass, Italian plant response rating [2, 14]: 80
Plant response rating, Ryegrass, Italian [2, 15]: 90
Plant response rating, Wheat [3]: 0
Wheat plant response rating [3]: 0
Plant response rating, Blackgrass [4]: 30
Blackgrass plant response rating [4]: 60
Plant response rating, Galium [5]: 90
Galium plant response rating [5]: 90
Plant response rating, Lambsquarters [6, 17]: 100
Plant response rating, Lambsquarters [6, 18]: 100
Plant response rating, Lambsquarters [6, 19]: 40
Plant response rating, Lambsquarters [6, 20]: 85
Plant response rating, Lambsquarters [6, 21]: 98
Lambsquarters plant response rating [6, 22]: 90
Lambsquarters plant response rating [6, 23]: 90
Plant response rating, Morningglory [7, 17]: 98
Plant response rating, Morningglory [7, 18]: 98
Plant response rating, Morningglory [7, 19]: 80
Plant response rating, Morningglory [7, 20]: 85
Plant response rating, Morningglory [7, 21]: 85
Morningglory plant response rating [7, 22]: 90
Morningglory plant response rating [7, 23]: 95
Plant response rating, Oilseed Rape [8, 17]: 0
Plant response rating, Oilseed Rape [8, 18]: 0
Plant response rating, Oilseed Rape [8, 19]: 0
Plant response rating, Oilseed Rape [8, 20]: 0
Plant response rating, Oilseed Rape [8, 21]: 30
Oilseed Rape plant response rating [8, 22]: 90
Oilseed Rape plant response rating [8, 23]: 0
Plant response rating, Pigweed [9, 17]: 80
Plant response rating, Pigweed [9, 18]: 95
Plant response rating, Pigweed [9, 19]: 95
Plant response rating, Pigweed [9, 20]: 100
Plant response rating, Pigweed [9, 21]: 100
Pigweed plant response rating [9, 22]: 100
Pigweed plant response rating [9, 23]: 75
Plant response rating, Ragweed [10, 17]: 90
Plant response rating, Ragweed [10, 18]: 98
Plant response rating, Ragweed [10, 19]: 30
Plant response rating, Ragweed [10, 20]: 80
Plant response rating, Ragweed [10, 21]: 80
Ragweed plant response rating [10, 22]: 90
Ragweed plant response rating [10, 23]: 90
Plant response rating, Waterhemp [11, 17]: 50
Plant response rating, Waterhemp [11, 18]: 50
Plant response rating, Waterhemp [11, 19]: 75
Plant response rating, Waterhemp [11, 20]: 50
Plant response rating, Waterhemp [11, 21]: 40
Waterhemp plant response rating [11, 22]: 75
Waterhemp plant response rating [11, 23]: 40
